Measurements published in patent US9913838B2, “Methods of treating cancer using compositions comprising perillyl alcohol derivative” (NEONC TECHNOLOGIES INC., priority 2010, dated 2018).
“Also recorded” adds a separate entry of the source.

What was measured:
a variant of MDA-MB-231 = assay: In vitro sensitivity of the cell line used in vivo; assay type: cell-based; details: Homo sapiens, in vitro sensitivity to TMZ
[1] = in vitro and in vivo; cited from earlier work
[2] = CSF versus systemic circulation; cited from earlier work
[3] = test system: TMZ resistant cells (U251TR); assay: MTT cytotoxicity assay, U251TR cells; assay type: cell-based, human; details: in words
Source text: (§1) Cancer Lett. 2011 Mar. 28; 302(2):100-8.

[4] = test system: brain endothelial cells (BEC; confluent and subconfluent); assay: MTT cytotoxicity assay, brain endothelial cells; assay type: cell-based; details: in words
Source text: as §1

[5] = test system: tumor brain endothelial cells (TuBEC); assay: MTT cytotoxicity assay, tumor brain endothelial cells; assay type: cell-based; details: in words
Source text: as §1

[6] = test system: USC-04 glioma cancer stem cells; assay: cells; details: read-out: cytotoxicity with 1050
Method: MTT cytotoxicity assays were carried out after cells were treated with the TMZ alone, POH alone, or the TMZ-POH conjugate. The MTT cytotoxicity assays were carried out as described in Chen T C, et al. Green tea epigallocatechin gallate enhances therapeutic efficacy of temozolomide in orthotopic mouse glioblastoma models. Cancer Lett. 2011 Mar. 28; 302(2):100-8.

CHOP = assay: Western blot of ER stress in TMZ sensitive and resistant U251 glioma cells; assay type: cell-based, human
Method: Western blots were performed after TMZ sensitive and resistant glioma cells were treated with the TMZ-POH conjugate for 18 hr.

γ-H2AX [7] = assay: Western blot of DNA damage marker in MDA-MB-231 cells; assay type: cell-based, human; details: MDA-MB-231, 50 μM, time course of 72 hours; in words
Method: (§2) Actin was used as a loading control.
(§3) Total cell lysates were analyzed by Western blot analysis as described in P. Pyrko et al. Downregulation of survivin expression and concomitant induction of apoptosis by celecoxib and its non-cyclooxygenase-2-inhibitory analog, dimethyl-celecoxib (DMC), in tumor cells in vitro and in vivo. Mol Cancer 5 (2006) 19. The primary antibodies were purchased from Cell Signaling Technology (Beverly, Mass.) or Santa Cruz Biotechnology, Inc. (Santa Cruz, Calif.) and used according to the manufacturers' recommendations. All immunoblots were repeated at least once to confirm the results.

γ-H2AX [8] = assay: Western blot of DNA damage marker in MCF7 cells; assay type: cell-based, human; details: MCF-7, 50 μM, 48 hours, in words
Method: as §2, §3

[9] = test system: γ-H2AX, activated caspase 7 and cleaved PARP; assay: DNA damage and cell death marker analysis in MDA-MB-231 cells (Western blot); assay type: cell-based, human; details: in words
Method: FIGS. 25A-25B show DNA damage and cell death marker analysis, where MDA-MB-231 cells were used for Western blot analysis of expression levels for markers of DNA damage (γ-H2AX) and cell death (activated caspase 7 and cleaved PARP). In FIG. 25A, cells were treated with 15 μM TMZ-POH and harvested every 24 hours up to 6 days; control cells remained untreated, or received vehicle (vh.) only. In FIG. 25B, cells were treated with 20 μM of either TMZ-POH, TMZ, or POH individually, or with 20 μM TMZ combined with 20 μM POH (TMZ+POH) and harvested after 24 hours or 5 days; control cells remained untreated, or received vehicle (vh.) only. In the case of caspase 7, only the activated (cleaved) form is shown (cl. C-7).
as §3
It is known that GBM cells treated with physiological concentrations of TMZ (<100 μM) in vitro can survive for several (5-7) days seemingly unaffected before substantial cell death becomes apparent. We observed a similar phenotype when breast cancer cell lines were treated with TMZ-POH, i.e., cell cultures only began to deteriorate approximately a week after the onset of drug treatment. In order to characterize TMZ-POH-induced cell death in greater detail, we treated MDA-MB-231 cells with 15 μM of the drug and collected cell lysates daily over the course of 6 days. The lysates were analyzed by Western blot for the presence of two apoptosis markers, cleaved (i.e. activated) caspase 7 and cleaved PARP-1 (poly ADP-ribose polymerase-1), along with the DNA damage marker γ-H2AX.
As shown in FIGS. 20A-20B above, an equimolar combination of TMZ+POH was unable to achieve the same potency in blocking colony survival as the TMZ-POH conjugate. […] We treated cells with the same concentration (20 μM) of TMZ-POH, TMZ, POH, or TMZ combined with POH (TMZ+POH), and analyzed the induction of γ-H2AX, activated caspase 7, and cleaved PARP. […] Thus, the results from the cell survival assay (FIGS. 20A-20B) correlated closely with the effects of these compounds on DNA damage and apoptosis markers (FIG. 25B), and in all cases TMZ-POH clearly generated the strongest anticancer impact.

Lipophilicity = assay type: physicochemical; details: data not shown; in words

Structure (SMILES) | IC50 (a variant of MDA-MB-231) [µM] | half-life [1] [h] | drug levels in the cerebrospinal fluid (CSF) lower than in plasma [2] [%] | cytotoxicity (MTT assay) [3] | cytotoxicity (MTT assay) ([4]; confluent BEC) | cytotoxicity (MTT assay) ([4]; subconfluent BEC, high concentrations) | cytotoxicity (MTT assay) [5] | IC50 [6] [µM] | concentration at which activation of the proapoptic protein CHOP was shown (as low as) (CHOP; 18 hr treatment) [µM] | ER stress (ERS) (CHOP; TMZ sensitive and resistant U251, 18 hr, in words) | levels of γ-H2AX (γ-H2AX [7]) | phosphorylation of H2AX (γ-H2AX [8]; without O6-BG) | levels of γ-H2AX (γ-H2AX [8]; pre-treated with O6-BG (30 μM)) | active caspase 7 and cleaved PARP ([9]; MDA-MB-231, 15 μM, over 6 days) | γ-H2AX expression levels ([9]; MDA-MB-231, 15 μM, over 6 days) | induction of γ-H2AX, activated caspase 7, and cleaved PARP ([9]; MDA-MB-231, 20 μM, after 5 days of treatment) | lipophilicity (Lipophilicity)
Cn1nnc2c(C(N)=O)ncn2c1=O [TMZ, temozolomide, reference compound] | < 10 | 1 to 2 | 80 | – | – | – | – | – | – | – | – | – | – | – | – | – | –
C=C(C)[C@@H]1CC=C(COC(=O)NC(=O)c2ncn3c(=O)n(C)nnc23)CC1 [TMZ-POH] | – | – | – | demonstrated cytotoxicity | did not induce significant cytotoxicity | Mild to moderate cytotoxicity | did not induce significant cytotoxicity | 150 | 60 | induces ER stress | substantially increased levels of γ-H2AX; also recorded: much stronger as compared to TMZ | no increased phosphorylation of H2AX | increased levels of γ-H2AX became readily apparent | started to increase at day 3 | pronounced increase in γ-H2AX expression levels | induced quite prominently | increased over TMZ
